Test results as given in paper PMC8868383, “Pharmacokinetics and Pharmacodynamics of Key Components of a Standardized Centella asiatica Product in Cognitively Impaired Older Adults: A Phase 1, Double-Blind, Randomized Clinical Trial” (Antioxidants, 2022).
Several values for one entry are separate records, joined by “and”; a condition that tells them apart may be missing. Equal values may be shown once. Read-outs that look alike come from different tables or passages of the source.

How the values were obtained:
[1] = Plasma pharmacokinetics after single oral administration of CAP; details: for Cmax / Tmax / AUC(0-t) / half-life: human; for Cmax / Tmax / AUC(0-t) / half-life / Fold difference in Cmax between the 2 g and 4 g doses: plasma; for Time of preliminary (initial) peak of plasma concentration-time curve / Time of larger secondary peak of plasma concentration-time curve: mean profile, both doses (2 g and 4 g)
Excerpt: (§1) This was a single-center, randomized, double blind, crossover study of two acute dosages (2 g and 4 g) of CAP. The participants were randomized using an arm equivalence design, by the OHSU Research Pharmacy, to receive each dose of CAP in a different order to prevent tolerance effects and ensure some data was available from each dose in the case of a dropout after the first dose. All study personnel were blinded to the participant’s randomization until all data analysis had been completed. All participants consumed both doses of CAP and attended two study visits a minimum of 14 days apart. They were placed on a low phytochemical diet for 48 h prior to and during each study visit in order to minimize interference from dietary TTs and CQAs and ensure that any such compounds identified in the plasma and urine were derived from C. asiatica. To ensure compliance, all participants completed a diet diary over the course of the 48 h. The participants fasted for a minimum of 10 h prior to each study visit, excluding water, to standardize gastrointestinal transit time and minimize delayed absorption due to the presence of food.
(§2) In the morning of each study visit, a baseline blood sample (20 mL) was collected via a peripheral intravenous catheter. […] Blood samples (10 mL) were collected via the peripheral catheter over a 10 h post-administration period at 0.25, 0.5, 0.75, 1, 1.5, 2, 2.5, 3, 4, 6, 8, and 10 h. Blood was transferred to a BD Vacutainer™ heparinized tube (Fisher Scientific) and centrifuged for 10 min at 10,000× g and 4 °C to isolate plasma. Plasma was frozen in 2mL aliquots and kept at −80 °C until analysis. […] All participants were asked to refrain from consuming food until 2 h after consumption of the study intervention at each visit to prevent delayed absorption due to food effects. Breakfast (at 2 h following CAP ingestion), lunch, dinner and snacks, all meeting the low phytochemical criteria, were provided by the OCTRI Bionutrition Unit. Urine samples were collected at baseline and over the 10 h post-administration period at each visit to measure renal excretion. All post-administration urinary output was combined in a 2 L urine collection container stored at 4 °C during the study visit. The total amount of post CAP administration urine was recorded, and a 50 mL aliquot was frozen at −80 °C for analysis. At the second visit, participants consumed the dose they were not randomized to receive at the first visit and underwent all study procedures previously described.
(§3) Sample preparation was performed using a protein precipitation method adapted from Cheng et al. [55] Duplicate plasma samples (50 µL) were combined with an ascorbic acid solution (1%; 10 µL) and incubated for 20 min at 37 °C using A. aerogenes sulfatase (2.5 µL; 0.025–0.05 units) and E. coli glucuronidase (2.5 µL; 12.5–125 units) dissolved in 50% aqueous glycerol to release the analytes from their sulfate and β-D-glucuronic acid esters. Proteins were precipitated by adding a crash solution (200 µL) consisting of 3:1 acetonitrile:methanol containing internal standards (20 µg/mL d3-isoferulic acid, d3-dihydroisoferulic acid, and chrysin or 50 µg/mL ^13C3-ferulic acid and ursolic acid), holding for 30 min at 4 °C and then centrifuged for 5 min at 10,000× g. The supernatant was filtered through a 0.22 µm Ultrafree MC-GV spin filter (Millipore Sigma) at 10,000× g for 5 min at 4 °C and then transferred to vials for analysis. For TT analysis, the concentration of organic solvent (the sample filtrate) to water in each sample was adjusted to a 60:40 ratio to optimize the peak shape, and for CQA analysis, the concentration of organic solvent to 1% aqueous formic acid in each sample was adjusted to a 90:10 ratio to optimize the peak shape.

[2] = Renal (urinary) excretion over 10 h after CAP administration; details: for Predominant form (free or conjugated) in post-administration urine: 10 h urine; for Predominant form (free or conjugated) in post-administration urine / Detection in 10 h post-administration urine: 2 g and 4 g CAP
Description: (§4) All participants were asked to refrain from consuming food until 2 h after consumption of the study intervention at each visit to prevent delayed absorption due to food effects. […] Urine samples were collected at baseline and over the 10 h post-administration period at each visit to measure renal excretion. All post-administration urinary output was combined in a 2 L urine collection container stored at 4 °C during the study visit. The total amount of post CAP administration urine was recorded, and a 50 mL aliquot was frozen at −80 °C for analysis. At the second visit, participants consumed the dose they were not randomized to receive at the first visit and underwent all study procedures previously described.
(§5) Calibration curves were prepared in baseline urine and treated with sham enzyme.
(§6) Plasma and urine samples collected at the participant’s screening visit were analyzed in parallel with the samples collected from each study visit to determine the efficacy of the low phytochemical diet in reducing analyte levels from dietary sources. The analysis of the prepared plasma and urine samples was performed at the OHSU Bioanalytical Shared Resource/Pharmacokinetics Core Laboratory (Portland, OR). […] The injection volume was 5 µL. Gradient elution was performed using a mobile phase of solvent A (water containing 0.05% v/v acetic acid) and solvent B (acetonitrile with 0.05% v/v acetic acid). The flow rate was 0.8 mL/min.

[3] = Analyte levels in screening and baseline plasma and urine (low phytochemical diet check); details: for Baseline Total, urine concentration / Baseline Unconjugated, urine concentration: baseline on study visits after 48 h low phytochemical diet, before CAP; for Baseline Total, urine concentration / Screening Unconjugated, urine concentration / Screening Total, urine concentration / Baseline Unconjugated, urine concentration: mean ± SEM, n = 4; for Screening Unconjugated, urine concentration / Screening Total, urine concentration: screening visit; for Screening Unconjugated, urine concentration / Screening Total, urine concentration / Plasma concentration at screening visit: uncontrolled diet; for Screening Unconjugated, urine concentration: sham enzyme; for Screening Total, urine concentration: with enzyme hydrolysis; for Plasma concentration at screening visit: before any CAP
Excerpt: as §1, §5
(§7) Plasma and urine samples collected at the participant’s screening visit were analyzed in parallel with the samples collected from each study visit to determine the efficacy of the low phytochemical diet in reducing analyte levels from dietary sources. The analysis of the prepared plasma and urine samples was performed at the OHSU Bioanalytical Shared Resource/Pharmacokinetics Core Laboratory (Portland, OR). For detection of TT glycosides and aglycones, an analytical method adapted from Nair et al. [56] was used. […] The injection volume was 20 µL. Gradient elution was performed using a mobile phase of solvent A (water containing 10 mM ammonium acetate and 0.02% ammonium hydroxide; pH 8.5) and solvent B (methanol). The flow rate was 0.42 mL/min. […] The injection volume was 5 µL. Gradient elution was performed using a mobile phase of solvent A (water containing 0.05% v/v acetic acid) and solvent B (acetonitrile with 0.05% v/v acetic acid). The flow rate was 0.8 mL/min.

[4] = design: method as in PMID 2329813, PMID 8020529; details: past human studies of TTFCA or asiatic acid alone, capsule form; cited from earlier work
[5] = design: method as in PMID 19167274; details: dogs given encapsulated aqueous extracts of C. asiatica standardized to asiaticoside; cited from earlier work
clinical = details: human, in vivo, po
Excerpt: as §1, §2, §3

[6] = design: method as in PMID 33767223; details: two separate doses (250 mg and 500 mg), formulation with solubilizing agent; cited from earlier work
[7] = in vivo
Excerpt: as §1, §5, §7

[8] = human, in vivo
Excerpt: as §1, §2, §3

[9] = in vivo; remark: listed apart in the source
Description: as §4, §5, §6

Compound | Cmax ([1]; oral) [ng/mL] | Tmax ([1]; oral) [h] | AUC(0-t) ([1]; po, 2 g) [ng·h/mL] | Cmax ([1]; po, 2 g) [ng/mL] | Tmax ([1]; po, 2 g) [h] | half-life ([1]; po, 2 g) [h] | AUC(0-t) ([1]; po, 4 g) [ng·h/mL] | Cmax ([1]; po, 4 g) [ng/mL] | Tmax ([1]; po, 4 g) [h] | half-life ([1]; po, 4 g) [h] | Time of preliminary (initial) peak of plasma concentration-time curve [1] [h] | Predominant form (free or conjugated) in post-administration urine [2] | Baseline Total, urine concentration [3] [ng/mL] | Screening Unconjugated, urine concentration [3] [ng/mL] | Screening Total, urine concentration [3] [ng/mL] | Plasma concentration at screening visit [3] [ng/mL] | Fold difference in Cmax between the 2 g and 4 g doses [1] | also measured
C[C@H]1[C@H](C)CC[C@]2(C(=O)O)CC[C@]3(C)C(=CC[C@@H]4[C@@]5(C)C[C@@H](O)[C@H](O)[C@@](C)(CO)[C@@H]5[C@H](O)C[C@]43C)[C@H]12 [MA, madecassic acid] | 36 to 68 | 2 | 101 ± 16 | 38 ± 3 | 2 ± 0.5 | 1.7 ± 0.5 | 187 ± 48 | 63 ± 10 | 2 ± 0.5 | 1.7 ± 0.9 | 0.75 |  |  |  |  |  |  | Cmax ([1]; oral, 2 g): 32 ng/mL; Tmax ([1]; oral, 2 g): 0.75 h; Cmax ([1]; oral, 4 g): 47 ng/mL; Tmax ([1]; oral, 4 g): 3 h
COc1ccc(/C=C/C(=O)O)cc1O [IFA, isoferulic acid] | 0.9 to 2 | 0.75 | 5 ± 2 | 0.9 ± 0.3 | 1.3 ± 0.6 | 8.8 ± 5.7 | 8 ± 0.4 | 2 ± 0.1 | 1 ± 0.4 | 2.9 ± 0.6 |  | predominantly conjugated form | 5 ± 2 | 4 ± 3 | 472 ± 246 | 2.3 ± 1.0 | two-fold | 
C[C@H]1[C@H](C)CC[C@]2(C(=O)O)CC[C@]3(C)C(=CC[C@@H]4[C@@]5(C)C[C@@H](O)[C@H](O)[C@@](C)(CO)[C@@H]5CC[C@]43C)[C@H]12 [AA, asiatic acid] | 133 to 259 | 2 | 364 ± 114 | 124 ± 29 | 2 ± 0.6 | 3.8 ± 1 | 935 ± 178 | 259 ± 24 | 2 ± 0.6 | 2.2 ± 0.5 | 0.5 | predominantly in the conjugated form |  |  | 0.5 ± 5 |  |  | Detection in 10 h post-administration urine [2]: very low concentrations; Tmax post-ingestion [4]: 4.0 to 4.6 h; Time of plasma peak post consumption [5]: 2.7 h; Cmax ([1]; oral, 2 g): 99 ng/mL; Tmax ([1]; oral, 2 g): 3 h; Cmax ([1]; oral, 4 g): 206 ng/mL; Tmax ([1]; oral, 4 g): 2.5 h; Time of larger secondary peak of plasma concentration-time curve [1]: 2.5 h and 2.5 to 3 h
O=C(O)/C=C/c1ccc(O)c(O)c1 [CA, caffeic acid] | 0.3 to 0.5 | 6 | 1 ± 1 |  |  | 2.6 | 3 ± 0.3 | 1 ± 0.1 | 4 ± 1 | 3.5 ± 1.2 |  |  |  | 184 ± 144 | 260 ± 140 | 0.8 ± 0.6 |  | Cmax (clinical): 0.3 ± 0.2 ng/mL
C[C@H]1[C@H](C)CC[C@]2(C(=O)O[C@@H]3O[C@H](CO[C@@H]4O[C@H](CO)[C@@H](O[C@@H]5O[C@@H](C)[C@H](O)[C@@H](O)[C@H]5O)[C@H](O)[C@H]4O)[C@@H](O)[C@H](O)[C@H]3O)CC[C@]3(C)C(=CC[C@@H]4[C@@]5(C)C[C@@H](O)[C@H](O)[C@@](C)(CO)[C@@H]5[C@H](O)C[C@]43C)[C@H]12 [MS, madecassoside] |  |  |  |  |  |  |  |  |  |  |  | predominantly free form |  |  |  |  |  | Detection in 10 h post-administration urine [2]: small amounts; Amount in the 10 h urine ([2]; after 2 g or 4 g CAP): 1 to 8 µg; Plasma concentration after single administration of modified ECa233 [6]: 10 to 13 ng/mL; Plasma levels ([1]; all time points, 2 g and 4 g CAP): below the lower limit of quantitation (LLOQ)
COc1cc(/C=C/C(=O)O)ccc1O [FA, ferulic acid] |  |  |  |  |  |  |  |  |  |  |  |  |  |  |  |  |  | Plasma concentration at screening visit [7]: 1.3 ± 0.2 ng/mL; Screening Total, urine concentration [7]: 372 ± 78 ng/mL; Screening Unconjugated, urine concentration [7]: 7 ± 3 ng/mL; Cmax, range over the 2 g and 4 g doses as stated in text [8]: 1 to 1.4 ng/mL; Tmax as stated in text [8]: 6 h; Predominant form (free or conjugated) in post-administration urine [9]: predominantly conjugated form

Continued, in another order:

Cmax ([1]; oral) [ng/mL] | Tmax ([1]; oral) [h] | AUC(0-t) ([1]; po, 2 g) [ng·h/mL] | Cmax ([1]; po, 2 g) [ng/mL] | Tmax ([1]; po, 2 g) [h] | half-life ([1]; po, 2 g) [h] | AUC(0-t) ([1]; po, 4 g) [ng·h/mL] | Cmax ([1]; po, 4 g) [ng/mL] | Tmax ([1]; po, 4 g) [h] | half-life ([1]; po, 4 g) [h] | Time of preliminary (initial) peak of plasma concentration-time curve [1] [h] | Predominant form (free or conjugated) in post-administration urine [2] | Baseline Total, urine concentration [3] [ng/mL] | Screening Unconjugated, urine concentration [3] [ng/mL] | Screening Total, urine concentration [3] [ng/mL] | Plasma concentration at screening visit [3] [ng/mL] | Fold difference in Cmax between the 2 g and 4 g doses [1] | Compound | also measured
32 to 42 | 6 | 100 ± 46 | 32 ± 18 | 6 ± 1.4 | 2.3 ± 0.3 | 189 ± 77 | 42 ± 18 | 5.5 ± 1.7 | 1.8 ± 0.7 |  | predominantly conjugated form | 2 ± 2 | 23 ± 14 | 91 ± 48 | 49.6 ± 30.4 |  | O=C(O)CCc1cccc(O)c1 [HPP, 3-(3-hydroxyphenyl)propionic acid] | 
11 to 20 | 4 | 42 ± 18 | 11 ± 5 | 3.4 ± 1 | 4.5 ± 1.6 | 77 ± 25 | 20 ± 6 | 3.5 ± 0.5 | 2.5 ± 0.3 |  | predominantly conjugated form | 273 ± 131 | 179 ± 74 | 939 ± 507 | 6.6 ± 3.2 | two-fold | COc1cc(CCC(=O)O)ccc1O [DHFA, dihydroferulic acid] | Baseline Unconjugated, urine concentration [3]: 8 ± 6 ng/mL
1 to 2 | 4 | 3 ± 0.4 | 1 ± 0.4 | 3.25 ± 0.5 | 4.8 ± 1.3 | 6 ± 1 | 2 ± 0.2 | 3.5 ± 0.5 | 1.1 ± 0.4 | 2 | predominantly conjugated form | 9 ± 3 | 46 ± 36 | 117 ± 64 | 0.3 ± 0.2 | two-fold | O=C(O)CCc1ccc(O)c(O)c1 [DHCA, dihydrocaffeic acid] | Baseline Unconjugated, urine concentration [3]: 0.9 ± 2 ng/mL; Time of larger secondary peak of plasma concentration-time curve [1]: 4 h
